ChEMBL document CHEMBL4808193, “[11]-Chaetoglobosins from Pseudeurotium bakeri Induce G2/M Cell Cycle Arrest and Apoptosis in Human Cancer Cells” (J Nat Prod, 2021)
Active and inactive are the calls of the source. The calls are words filed in the database; no cut-off is given here.

Columns and labels:
L02 = assay: Cytotoxicity against human L02 cells assessed as reduction in cell viability by MTT assay; type: cell-based
A-427 [1] = assay: Cell cycle arrest in human A-427 cells assessed as accumulation at G0/G1 phase at 3.75 uM measured after 24 hrs by PI staining based flow cytometry (reference value: 52.93%); type: functional
MCF7 [2] = assay: Cell cycle arrest in human MCF7 cells assessed as accumulation at G0/G1 phase at 10 uM measured after 24 hrs by PI staining based flow cytometry (reference value: 60.23%); type: functional
A-427 [3] = assay: Induction of apoptosis in human A-427 cells assessed as late apoptotic cells at 5 uM measured after 24 hrs by Annexin V-FITC/propidium iodide staining based flow cytometric analysis (reference value: 3.18%); type: functional
A-427 [4] = assay: Cell cycle arrest in human A-427 cells assessed as accumulation at S phase at 5 uM measured after 24 hrs by PI staining based flow cytometry (reference value: 27.27%); type: functional
HCT-116 = assay: Cytotoxicity against human HCT-116 cells assessed as reduction in cell viability by MTT assay; type: functional, cell-based
MCF7 [5] = assay: Induction of apoptosis in human MCF7 cells assessed as early apoptotic cells at 5 uM measured after 24 hrs by Annexin V-FITC/propidium iodide staining based flow cytometric analysis (reference value: 4.82%); type: functional
MCF7 [6] = assay: Induction of apoptosis in human MCF7 cells assessed as late apoptotic cells at 10 uM measured after 24 hrs by Annexin V-FITC/propidium iodide staining based flow cytometric analysis (reference value: 1.11%); type: functional
MCF7 [7] = assay: Induction of apoptosis in human MCF7 cells assessed as increase in PARP level at 5 to 10 uM incubated for 24 hrs by Western blot analysis; type: functional, cell-based; conditions: dose 5-10 µM
MCF7 [8] = assay: Cell cycle arrest in human MCF7 cells assessed as accumulation at G2/M phase at 7.5 uM measured after 24 hrs by PI staining based flow cytometry (reference value: 15.13%); type: functional
HepG2 = assay: Cytotoxicity against human HepG2 cells assessed as reduction in cell viability by MTT assay; type: functional, cell-based
MCF7 [9] = assay: Induction of apoptosis in human MCF7 cells assessed as increase in cleaved caspase 3 level at 5 to 10 uM incubated for 24 hrs by Western blot analysis; type: functional, cell-based; conditions: dose 5-10 µM
MCF7 [10] = assay: Induction of apoptosis in human MCF7 cells assessed as late apoptotic cells at 5 uM measured after 24 hrs by Annexin V-FITC/propidium iodide staining based flow cytometric analysis (reference value: 1.11%); type: functional
A-427 [11] = assay: Cell cycle arrest in human A-427 cells assessed as accumulation at G0/G1 phase at 5 uM measured after 24 hrs by PI staining based flow cytometry (reference value: 52.93%); type: functional
HT-29 = assay: Cytotoxicity against human HT-29 cells assessed as reduction in cell viability by MTT assay; type: functional, cell-based
MCF7 [12] = assay: Cell cycle arrest in human MCF7 cells assessed as accumulation at G2/M phase at 5 uM measured after 24 hrs by PI staining based flow cytometry (reference value: 15.13%); type: functional
MCF7 [13] = assay: Cell cycle arrest in human MCF7 cells assessed as accumulation at S phase at 10 uM measured after 24 hrs by PI staining based flow cytometry (reference value: 24.64%); type: functional
A-427 [14] = assay: Induction of apoptosis in human A-427 cells assessed as late apoptotic cells at 3.75 uM measured after 24 hrs by Annexin V-FITC/propidium iodide staining based flow cytometric analysis (reference value: 3.18%); type: functional
MCF7 [15] = assay: Cell cycle arrest in human MCF7 cells assessed as accumulation at G0/G1 phase at 7.5 uM measured after 24 hrs by PI staining based flow cytometry (reference value: 60.23%); type: functional
MCF7 [16] = assay: Induction of apoptosis in human MCF7 cells assessed as increase in cleaved PARP level at 5 to 10 uM incubated for 24 hrs by Western blot analysis; type: functional, cell-based; conditions: dose 5-10 µM
A-427 [17] = assay: Induction of apoptosis in human A-427 cells assessed as early apoptotic cells at 5 uM measured after 24 hrs by Annexin V-FITC/propidium iodide staining based flow cytometric analysis (reference value: 4.98%); type: functional
MCF7 [18] = assay: Induction of apoptosis in human MCF7 cells assessed as early apoptotic cells at 10 uM measured after 24 hrs by Annexin V-FITC/propidium iodide staining based flow cytometric analysis (reference value: 4.82%); type: functional
A-427 [19] = assay: Induction of apoptosis in human A-427 cells assessed as late apoptotic cells at 2.5 uM measured after 24 hrs by Annexin V-FITC/propidium iodide staining based flow cytometric analysis (reference value: 3.18%); type: functional
MCF7 [20] = assay: Cytotoxicity against human MCF7 cells assessed as reduction in cell viability by MTT assay; type: functional, cell-based
MCF7 [21] = assay: Cell cycle arrest in human MCF7 cells assessed as accumulation at G2/M phase at 10 uM measured after 24 hrs by PI staining based flow cytometry (reference value: 15.13%); type: functional
MCF7 [22] = assay: Induction of apoptosis in human MCF7 cells assessed as increase in Bax protein level at 5 to 10 uM incubated for 24 hrs by Western blot analysis; type: functional, cell-based; conditions: dose 5-10 µM
MCF7 [23] = assay: Cell cycle arrest in human MCF7 cells assessed as accumulation at S phase at 5 uM measured after 24 hrs by PI staining based flow cytometry (reference value: 24.64%); type: functional
A-427 [24] = assay: Cell cycle arrest in human A-427 cells assessed as accumulation at G2/M phase at 5 uM measured after 24 hrs by PI staining based flow cytometry (reference value: 19.81%); type: functional
MCF7 [25] = assay: Induction of apoptosis in human MCF7 cells assessed as late apoptotic cells at 7.5 uM measured after 24 hrs by Annexin V-FITC/propidium iodide staining based flow cytometric analysis (reference value: 1.11%); type: functional
A-427 [26] = assay: Cell cycle arrest in human A-427 cells assessed as accumulation at S phase at 2.5 uM measured after 24 hrs by PI staining based flow cytometry (reference value: 27.27%); type: functional
MCF7 [27] = assay: Induction of apoptosis in human MCF7 cells assessed as early apoptotic cells at 7.5 uM measured after 24 hrs by Annexin V-FITC/propidium iodide staining based flow cytometric analysis (reference value: 4.82%); type: functional
A-427 [28] = assay: Cell cycle arrest in human A-427 cells assessed as accumulation at G2/M phase at 2.5 uM measured after 24 hrs by PI staining based flow cytometry (reference value: 19.81%); type: functional
A549 = assay: Cytotoxicity against human A549 cells assessed as reduction in cell viability by MTT assay; type: functional, cell-based
A-427 [29] = assay: Cell cycle arrest in human A-427 cells assessed as accumulation at G0/G1 phase at 2.5 uM measured after 24 hrs by PI staining based flow cytometry (reference value: 52.93%); type: functional
A-427 [30] = assay: Cell cycle arrest in human A-427 cells assessed as accumulation at S phase at 3.75 uM measured after 24 hrs by PI staining based flow cytometry (reference value: 27.27%); type: functional
A-427 [31] = assay: Induction of apoptosis in human A-427 cells assessed as early apoptotic cells at 3.75 uM measured after 24 hrs by Annexin V-FITC/propidium iodide staining based flow cytometric analysis (reference value: 4.98%); type: functional
A-427 [32] = assay: Cytotoxicity against human A-427 cells assessed as reduction in cell viability by MTT assay; type: functional, cell-based
MCF7 [33] = assay: Cell cycle arrest in human MCF7 cells assessed as accumulation at G0/G1 phase at 5 uM measured after 24 hrs by PI staining based flow cytometry (reference value: 60.23%); type: functional
A-427 [34] = assay: Cell cycle arrest in human A-427 cells assessed as accumulation at G2/M phase at 3.75 uM measured after 24 hrs by PI staining based flow cytometry (reference value: 19.81%); type: functional
MCF7 [35] = assay: Induction of apoptosis in human MCF7 cells assessed as increase in cytochrome c level at 5 to 10 uM incubated for 24 hrs by Western blot analysis; type: functional, cell-based; conditions: dose 5-10 µM
MCF7 [36] = assay: Cell cycle arrest in human MCF7 cells assessed as accumulation at S phase at 7.5 uM measured after 24 hrs by PI staining based flow cytometry (reference value: 24.64%; type: functional
A-427 [37] = assay: Induction of apoptosis in human A-427 cells assessed as early apoptotic cells at 2.5 uM measured after 24 hrs by Annexin V-FITC/propidium iodide staining based flow cytometric analysis (reference value: 4.98%); type: functional
HeLa = assay: Cytotoxicity against human HeLa cells assessed as reduction in cell viability by MTT assay; type: functional, cell-based

For `CC1=C[C@@H]2/C=C/C[C@H](C)CC/C=C\C(=O)[C@]23C(=O)N[C@@H](Cc2c[nH]c4ccccc24)[C@@H]3[C@@H]1C`, the IC50 (L02) was 44.1 µM, the Activity (A-427 [1]) was 13.13% and the Activity (MCF7 [2]) was 28.08%. It also gave an Activity (A-427 [3]) of 22.56%, an Activity (A-427 [4]) of 17.84% and an IC50 (HCT-116) of 8 µM. For the same compound, the Activity (MCF7 [5]) was 11.86%, the Activity (MCF7 [6]) was 7.12% and the Activity (MCF7 [7]) was “Active”. For the same compound, the Activity (MCF7 [8]) was 48.75%, the IC50 (HepG2) was 9.1 µM and the Activity (MCF7 [9]) was “Active”. The Activity (MCF7 [10]) was 4.68%, the Activity (A-427 [11]) was 11.04% and the IC50 (HT-29) was 6.7 µM. The Activity (MCF7 [12]) was 42.22%, the Activity (MCF7 [13]) was 12.37% and the Activity (A-427 [14]) was 24.36%. For the same compound, the Activity (MCF7 [15]) was 32.82%, the Activity (MCF7 [16]) was “Active” and the Activity (A-427 [17]) was 20.14%. For the same compound, the Activity (MCF7 [18]) was 25.44%, the Activity (A-427 [19]) was 3.07% and the IC50 (MCF7 [20]) was 6.2 µM. The Activity (MCF7 [21]) was 59.55%, the Activity (MCF7 [22]) was “Active” and the Activity (MCF7 [23]) was 13.15%. For the same compound, the Activity (A-427 [24]) was 71.12%, the Activity (MCF7 [25]) was 6.76% and the Activity (A-427 [26]) was 21.83%. It also gave an Activity (MCF7 [27]) of 19.53%, an Activity (A-427 [28]) of 62.86% and an IC50 (A549) of 8.2 µM. The Activity (A-427 [29]) was 15.31%, the Activity (A-427 [30]) was 19.02% and the Activity (A-427 [31]) was 15.57%. For the same compound, the IC50 (A-427 [32]) was 4.7 µM, the Activity (MCF7 [33]) was 44.64% and the Activity (A-427 [34]) was 67.84%. For the same compound, the Activity (MCF7 [35]) was “Active”, the Activity (MCF7 [36]) was 18.43% and the Activity (A-427 [37]) was 11.53%. It also gave an IC50 (HeLa) of 7.1 µM.
